Results published in US5126337A, “Thiazetoquinoline-3-carboxylic acid derivative and a pharmaceutical composition comprising the same” (priority 1989, dated 1992).

Tested on: Male mice of ddY strain
Experiment: Convulsion inducing activity in combination with fenbufen
Settings: 30 min after fenbufen 100 mg/kg orally
Description: Male mice of ddY strain, 5 weeks old, were used. Fenbufen suspended in 0.5% carboxymethyl cellulose was administered orally at a dose of 100 mg/kg. After thirty minutes, test compounds suspended in 0.5% carboxymethyl cellulose were injected intraperitoneally (i.p.) at a dose of 100 mg/kg or 300 mg/kg.

CC1Sc2c(C(=O)O)c(=O)c3cc(F)c(N4CCNCC4)c(F)c3n21 (stereo not drawn) [Reference Drug C, 6,8-difluoro-1-methyl-4-oxo-7-(1-piperazinyl)-1H,4H-[1,3]thiazeto[3,2-a]quinoline-3-carboxylic acid, reference compound]
Number of convulsion induced/Number of animals (100 mg/kg (i.p.)): 6/6

CC1Sc2c(C(=O)O)c(=O)c3cc(F)c(N4CCC(N)C4)cc3n21 (stereo not drawn) [Reference Drug D, 7-(3-amino-1-pyrrolidinyl)-6-fluoro-1-methyl-4-oxo-1H,4H-[1,3]thiazeto[3,2-a]quinoline-3-carboxylic acid, reference compound]
Number of convulsion induced/Number of animals (100 mg/kg (i.p.)): 0/6 | Number of convulsion induced/Number of animals (300 mg/kg (i.p.)): 0/6
